Test results taken from ChEMBL document CHEMBL1148208, “Aureoverticillactam, a novel 22-atom macrocyclic lactam from the marine actinomycete Streptomyces aureoverticillatus” (J Nat Prod, 2004).

Tests used:
Format in all cases: functional, cell-based
[1] = test system: B16-F10; experiment: Cytotoxicity against mouse B16F10 cells after 48 hrs; conditions: B16-F10, 48 h
[2] = test system: HT-29; experiment: Cytotoxicity against human HT29 cells after 48 hrs; conditions: HT-29, 48 h
[3] = test system: Jurkat; experiment: Cytotoxicity against human Jurkat cells after 48 hrs

CCC/C=C/CC1C/C=C/C=C(C)/C=C/C=C\C(O)CC(O)C(O)/C=C/C=C/C=C/C(=O)N1 (stereo not drawn) [AUREOVERTICILLACTAM]
EC50 [1]: 2.2 µM | EC50 [2]: 3.6 µM | EC50 [3]: 2.3 µM
